Measured values reported in patent US10125121B2, “FYN kinase inhibitors” (ROTTAPHARM BIOTECH S.R.L., priority 2015, dated 2018).

Columns and labels:
[1] = molecular target: active FYN (human recombinant, 62.7 kDa) (Homo sapiens, UniProt P06241); assay: In vitro kinase assay (Z′-LYTE FRET); type: biochemical; conditions: read-out: IC50(nM) FYN INHIBITION
Procedure: Assays to determine the kinase inhibitory activity of compounds were performed using an automatic liquid handling device (Microlab STAR Hamilton) and Z′-LYTE™ Kinase Assay Platform, a Fluorescence Resonance Energy Transfer (FRET)-based assay platform compatible with high-throughput screening (HTS) applications. The assay employs a fluorescence-based, coupled-enzyme format and utilizes the differential sensitivity of phosphorylated and non-phosphorylated peptides to proteolytic cleavage.
All reagents were diluted in reaction buffer and the kinase reaction was carried out in a total volume of 10 μl, for 60 minutes at 25° C. The 0% Phosphorylation (i.e. no ATP) and 100% Phosphorylation (i.e. synthetically phosphorylated peptide supplied) Assay Controls, included in each plate, allowed to calculate the percent phosphorylation achieved in the specific reaction well. The 0% Inhibition and 0% Phosphorylation (i.e. 100% Inhibition) Controls define the dynamic range in the screen. At the end of incubation, a secondary reaction (the Development Reaction) started by adding 5 μl of Development Reagent, containing a site-specific protease that recognizes and cleaves non-phosphorylated peptides, and was interrupted after 60 minutes with 5 μl/sample of Stop Reagent.
The compounds were tested in a range of concentrations 10^−6-10^−9 M.
Results are expressed as percentage of inhibition and the IC50 values were calculated by non-linear curve fitting using GraphPad™ Prism software.

[2] = system: NF-kB activation in JB6 CI 41-5a (P+) cells; assay: Gene reporter (GR) assay, NF-kB luciferase after TNFα stimulation; type: cell-based, murine; conditions: Mus musculus; 1 h pre-treatment, 2 ng/ml TNFα for 4 h; read-out: IC50(nM) GR Inhibition
Excerpt: To determine if the compounds of the invention were active also in a cellular model, a gene reporter assay was established in a cell line (JB6 CI 41-5a (P+)) know to activate Fyn kinase via an inflammatory stimuli (TNFα). GR assay measures the activation of the nuclear transcription factor NF-kB, situated down-stream the Fyn activation pathway. Products active in this analysis has to penetrate in the cell and inhibit the activation pathway of NF-kB.
The murine epithelial cell line JB6 CI 41-5a (P+) (ATCC® Cat. # CRL-2010) was stably transfected with the pGL4.32[luc2P/NFkB-RE/Hygro] vector (Promega). Clonal selection was achieved by limiting dilution in MEM (+Earle's BSS+1.5 g/l sodium bicarbonate+0.1 mM NEAA)+GlutaMAX™-I, +1 mM sodium pyruvate, +5% FBS+80 μg/ml Hygromycin B. The clones were tested for their response to TNFα stimulus. The obtained transfected cells (JB6(P+) NFkB-RE-luc2P T3-C10) contained a firefly luciferase gene (luc2P) under the control of minimal TATA promoter with multiple Nuclear Factor-kB response elements (NFkB-REs). These NFkB-REs are DNA binding sequences for the NF-kB transcription factor.
JB6(P+) NFkB-RE-luc2P T3-C10 cells were used for the analysis of NF-kB activity modulation, after TNFα stimulation, by Fyn-inhibitors (Hwang et al.; Biochem. Pharmacol. 2009, 77 (7):1213-22).
6000 cells/well were plated in a 96× well plate. After 24 h new medium without antibiotics was given. After further 24 h the cells were pre-treated with the different compounds for 1 h and then stimulated with 2 ng/ml TNFα for 4 h. In each experiments two positive standards were always used, and each tested condition was analyzed in quadruplicate.
The luciferase analysis was performed with ONE-Glo™+ToxLuciferase Reporter and Cell Viability Assay kit (Promega). This assay combined luciferase assay chemistry with a cell viability marker to better understand reporter gene expression in the context of cell health. The assay uses a two-step process. The first part of the assay was a non-lytic fluorescence assay (CellTiter-Fluor™ Cell Viability Assay) that measured the relative number of live cells in a culture population, as it measures a conserved and constitutive protease activity within live cells. The live-cell protease activity was restricted to intact viable cells and was measured using a fluorogenic, cell-permeant peptide substrate (glycyl-phenylalanyl-aminofluorocoumarin; GF-AFC). The generated fluorescent signal, proportional to the number of living cells, was measured with EnVision microplate reader (PerkinElmer) using an excitation wavelength of 400 nm and emission wavelength of 500 nm.
The second part of the assay uses the ONE-Glo™ Luciferase Assay System to quantify firefly luciferase reporter gene expression. The ONE-Glo™ Assay contained a fluoro-luciferin substrate, more tolerant to sample components than standard luciferase assay reagents. Luminescence was measured with EnVision microplate reader (PerkinElmer).
Compounds of Formula (I) were tested for their capacity to penetrate into the cell and inhibit the activation pathway of NF-kB.

[3] = system: CFA induced hyperalgesia; assay: CFA-induced inflammatory pain in rats (Randall-Selitto paw withdrawal threshold); type: in vivo; conditions: 3; rat, 24 h after administration
Procedure: Male Wistar rats were injected into the right hind footpad with 300 μg of Mycobacterium tuberculosis in 100 μL of liquid paraffin (Complete Freund's Adjuvant; CFA). Seventy-two hours later, compounds 2 and 26 were administered subcutaneously and 24 h after the administration, the response to noxious mechanical stimulation was assessed by measuring paw withdrawal threshold (PWT) with an analgesimeter of the Randall-Selitto type. Animals were gently restrained, and steadily increasing pressure was applied to the dorsal surface of both the ipsi-lateral (CFA-treated) and the contra-lateral paw via a dome-shaped plastic tip.
100% protection means that the animal treated with the compound and CFA can tolerate the same stimulus (weight) as the control animal which has not received CFA treatment.

Chain of active FYN (human recombinant, 62.7 kDa) (P06241 whole entry): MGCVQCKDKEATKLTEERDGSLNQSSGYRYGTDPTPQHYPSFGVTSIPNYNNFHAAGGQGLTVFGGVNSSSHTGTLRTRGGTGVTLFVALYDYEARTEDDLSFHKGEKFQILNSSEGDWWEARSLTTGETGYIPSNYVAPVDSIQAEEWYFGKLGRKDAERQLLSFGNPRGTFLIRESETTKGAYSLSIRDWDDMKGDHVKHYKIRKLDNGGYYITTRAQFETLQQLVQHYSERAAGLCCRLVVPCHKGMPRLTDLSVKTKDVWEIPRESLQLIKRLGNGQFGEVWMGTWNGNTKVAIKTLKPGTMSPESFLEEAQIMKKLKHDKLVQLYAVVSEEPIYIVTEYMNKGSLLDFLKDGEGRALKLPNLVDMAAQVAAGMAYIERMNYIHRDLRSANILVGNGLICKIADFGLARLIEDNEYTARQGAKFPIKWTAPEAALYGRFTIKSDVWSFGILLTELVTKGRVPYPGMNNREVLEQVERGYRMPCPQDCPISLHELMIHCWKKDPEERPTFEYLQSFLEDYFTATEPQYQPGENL

SMILES	IC50 [1] [nM]	IC50 [2] [nM]	% protective effect vs. CFA induced hyperalgesia [3] [%]
Cc1cc(CN2CCN(c3nccc(Nc4cc(C5CC5)[nH]n4)n3)CC2)ccc1NC(=O)c1ccccc1F [Compound 17, N-(4-((4-(4-((5-cyclopropyl-1H-pyrazol-3-yl)amino)pyrimidin-2-yl)piperazin-1-yl)methyl)-2-methylphenyl)-2-fluorobenzamide]	30	> 2000	
Cc1nocc1C(=O)Nc1ccc(CN2CCN(c3nccc(Nc4cc(C5CC5)[nH]n4)n3)CC2)cc1 [Compound 23, N-(4-((4-(4-((5-cyclopropyl-1H-pyrazol-3-yl)amino)pyrimidin-2-yl)piperazin-1-yl)methyl)phenyl)-3-methylisoxazole-4-carboxamide]	103	1930	
O=C(Nc1ccc(CN2CCN(c3nccc(Nc4cc(C5CC5)[nH]n4)n3)CC2)cc1)c1ccncc1C(F)(F)F [Compound 32, N-(4-((4-(4-((5-cyclopropyl-1H-pyrazol-3-yl)amino)pyrimidin-2-yl)piperazin-1-yl)methyl)phenyl)-3-(trifluoromethyl)-isonicotinamide]	17	1000	
O=C(Nc1cnc(CN2CCN(c3nccc(Nc4cc(C5CC5)[nH]n4)n3)CC2)cn1)c1ccccc1C(F)(F)F [Compound 41, N-(5-((4-(4-((5-cyclopropyl-1H-pyrazol-3-yl)amino)pyrimidin-2-yl)piperazin-1-yl)methyl)pyrazin-2-yl)-2-(trifluoromethyl)benzamide]	4	> 2000	
O=C(Nc1ccc(CN2CCN(c3nccc(Nc4cc(C5CC5)[nH]n4)n3)CC2)cc1)c1nccnc1C(F)(F)F [Compound 36, N-(4-((4-(4-((5-cyclopropyl-1H-pyrazol-3-yl)amino)pyrimidin-2-yl)piperazin-1-yl)methyl)phenyl)-3-(trifluoromethyl)-pyrazine-2-carboxamide]	8	> 2000	
O=C(Nc1ccc(CN2CCN(c3nccc(Nc4cc(C5CC5)[nH]n4)n3)CC2)cc1)c1ccc(F)cc1C(F)(F)F [Compound 14, N-(4-((4-(4-((5-cyclopropyl-1H-pyrazol-3-yl)amino)pyrimidin-2-yl)piperazin-1-yl)methyl)phenyl)-4-fluoro-2-(trifluoromethyl)benzamide]	16	603	
O=C(Nc1ccc(CN2CCN(c3nccc(Nc4cc(C5CC5)[nH]n4)n3)CC2)cc1)c1ccccc1OC(F)(F)F [Compound 8, N-(4-((4-(4-((5-cyclopropyl-1H-pyrazol-3-yl)amino)pyrimidin-2-yl)piperazin-1-yl)methyl)phenyl)-2-(trifluoromethoxy)benzamide]	39	766	
O=C(Nc1ccc(CN2CCN(c3nccc(Nc4cc(C5CC5)[nH]n4)n3)CC2)cc1)c1cccc(F)c1C(F)(F)F [Compound 12, N-(4-((4-(4-((5-cyclopropyl-1H-pyrazol-3-yl)amino)pyrimidin-2-yl)piperazin-1-yl)methyl)phenyl)-3-fluoro-2-(trifluoromethyl)benzamide]	29	430	
O=C(Nc1ccc(CN2CCN(c3nccc(Nc4cc(C5CC5)[nH]n4)n3)CC2)cc1)c1ncccc1C(F)(F)F [Compound 26, N-(4-((4-(4-((5-cyclopropyl-1H-pyrazol-3-yl)amino)pyrimidin-2-yl)piperazin-1-yl)methyl)phenyl)-3-(trifluoromethyl)-picolinamide]	9	247	100
O=C(Nc1ccc(CN2CCN(c3nccc(Nc4cc(C5CC5)[nH]n4)n3)CC2)cc1)c1cnccc1C(F)(F)F [Compound 29, N-(4-((4-(4-((5-cyclopropyl-1H-pyrazol-3-yl)amino)pyrimidin-2-yl)piperazin-1-yl)methyl)phenyl)-4-(trifluoromethyl)-nicotinamide]	8	973	
Cc1ccccc1C(=O)Nc1ccc(CN2CCN(c3nccc(Nc4cc(C5CC5)[nH]n4)n3)CC2)cc1 [Compound 4, N-(4-((4-(4-((5-cyclopropyl-1H-pyrazol-3-yl)amino)pyrimidin-2-yl)piperazin-1-yl)methyl)phenyl)-2-methylbenzamide]	17	788	
Cc1nc(C(=O)Nc2ccc(CN3CCN(c4nccc(Nc5cc(C6CC6)[nH]n5)n4)CC3)cc2)c(C(F)(F)F)o1 [Compound 21, N-(4-((4-(4-((5-cyclopropyl-1H-pyrazol-3-yl)amino)pyrimidin-2-yl)piperazin-1-yl)methyl)phenyl)-2-methyl-5-(trifluoromethyl)oxazole-4-carboxamide]	42	854	
O=C(Nc1ccc(CN2CCN(c3nccc(Nc4cc(C5CC5)[nH]n4)n3)CC2)nc1)c1ccccc1C(F)(F)F [Compound 43, N-(6-((4-(4-((5-cyclopropyl-1H-pyrazol-3-yl)amino)pyrimidin-2-yl)piperazin-1-yl)methyl)pyridin-3-yl)-2-(trifluoromethyl)benzamide]	27	1050	
O=C(Nc1ccc(CN2CCN(c3nccc(Nc4cc(C5CC5)[nH]n4)n3)CC2)cc1)c1c(F)cccc1C(F)(F)F [Compound 13, N-(4-((4-(4-((5-cyclopropyl-1H-pyrazol-3-yl)amino)pyrimidin-2-yl)piperazin-1-yl)methyl)phenyl)-2-fluoro-6-(trifluoromethyl)benzamide]	23	493	
O=C(Nc1ccc(CN2CCN(c3nccc(Nc4cc(C5CC5)[nH]n4)n3)CC2)cc1)c1cccnc1C(F)(F)F [Compound 27, N-(4-((4-(4-((5-cyclopropyl-1H-pyrazol-3-yl)amino)pyrimidin-2-yl)piperazin-1-yl)methyl)phenyl)-2-(trifluoromethyl)-nicotinamide]	27	1340	
